Results: patent US20220313640A1 (Concert Pharmaceuticals, Inc., priority 2019, published 2022)
Where two headings read alike, the source gives them in different places.

Tests used:
[1] = Randomized single dose crossover plasma PK of Compound 100 versus D-serine in healthy volunteers; type: in vivo, human; conditions: single 0.25 g oral solution, fasted, N = 11
Protocol: Thirteen healthy volunteers between the ages of 18 to 55 were enrolled in the study. […] Period 1 dosing occurred within 14 days of screening. […] Similarly, in Period 2, the 2 subjects in the sentinel group received the alternate treatment after a 4-day washout and approximately 2 days prior to the remaining subjects receiving their Period 2 dose. […] Water consumption was restricted from 1 hour prior to dosing until 1 hour after dosing. Subjects fasted for approximately 3 hours after dosing and remained upright or semi-supine during this period. A meal was provided 3-4 hours after the dose. Meal times and contents were standardized until the last blood sample was collected for PK assessments. […] Plasma samples were stored in labeled tubes at approximately -80° C.

[2] = Nephrotoxicity of Compound 100 and non-deuterated D-serine in male Sprague-Dawley rats, 150 mg/kg PO (BUN, creatinine, GGT); type: in vivo
Excerpt: (§1) The pharmacokinetic profile of Compound 100 was investigated in male Sprague-Dawley rats compared with that of non-deuterated D-serine. […] Plasma was collected and analyzed for Compound 100 and non-deuterated D-Serine. Additional blood was collected and analyzed for the full clinical chemistry profile.

[3] = Pharmacokinetics of non-deuterated D-serine in male Sprague-Dawley rats, 300 mg/kg PO; type: in vivo; conditions: rat, mean
Protocol: (§2) The hippocampus, cortex and plasma were collected and analyzed. Additional blood was collected and were analyzed for the full clinical chemistry profile. Urine was also collected and examined for glucose and total protein. […] The mean plasma, hippocampus, and cortex concentration at 1 hour are 19200 ng/mL, 674 ng/g, and 754 ng/g; respectively. The mean plasma, hippocampus, and cortex concentrations at 8 hours were 11250 ng/mL, 17725 ng/g, and 11875 ng/g, respectively. […] Blood urea nitrogen and creatinine levels were elevated.

[4] = Nephrotoxicity comparison of Compound 100 and non-deuterated D-serine at doses from 150 mg/kg to 750 mg/kg; type: in vivo, rats
[5] = Pharmacokinetics dose response of non-deuterated D-serine in male Sprague-Dawley rats, 30-300 mg/kg PO; type: in vivo; conditions: rat, plasma; for Tmax: po
Excerpt: (§3) The pharmacokinetic profile of non-deuterated D-serine was investigated in male Sprague-Dawley rats. […] Plasma was collected and analyzed for the non-deuterated D-serine. Additional blood was collected and analyzed for the full clinical chemistry profile.

[6] = Nephrotoxicity dose response of non-deuterated D-serine in male Sprague-Dawley rats, 30-300 mg/kg PO; type: in vivo; conditions: 24 hr samples at the 150 and 300 mg/kg doses, compared to control and reference values
Excerpt: as §3

[7] = Pharmacokinetic profile of Compound 100 versus non-deuterated D-serine in male Sprague-Dawley rats, 150 mg/kg PO; type: in vivo; conditions: male, Sprague-Dawley, rat, fasted, plasma, mean
Excerpt: as §1

[8] = Nephrotoxicity of non-deuterated D-serine at 300 mg/kg in male Sprague-Dawley rats (clinical chemistry, urine); type: in vivo; conditions: 300 mg/kg PO
Protocol: as §2

[9] = Pharmacokinetics of deuterated and non-deuterated D-serine in male Sprague Dawley rats, PO 10 mg/kg; type: in vivo; conditions: rat, 0.5% Methylcellulose, plasma
Protocol: Three rats were used for each group. Blood was collected at the following time points: for IV dosing: pre-dose, 0.05, 0.167, 0.5, 1, 2, 4, 6, 8 and 12 hours post-dose; for PO dosing: pre-dose, 0.25, 0.5, 1, 2, 4, 6, 8 and 12 hours post-dose PO. Urine was collected at pre-dose (minimum 12 hours), 0-6, 6-12 and 12-24 hours. Plasma samples were analyzed and quantified for dosed compound LC-MS/MS.

[10] = biological target: T1, human NMDAR subunits GluN1 and GluN2A (Homo sapiens, UniProt Q05586); assay: NMDA receptor activation in automated patch clamp system (ScreenPatch), HEK293 cells; type: cell-based; conditions: 0.003 to 10 μM, Compound 100 versus D-serine
T1 construct: expressed in transfected cells; host or cells: HEK293
Protocol: Peak current and steady state current were measured. The activity at the NMDA receptor was indistinguishable for the two compounds.

[11] = 150 mg/kg PO, fasted, mean (CV %)

For `NC(CO)C(=O)O` (stereo in doubt) [Non-deuterated D-Serine, D-serine], the Tmax ([1]; human, plasma) was 60 min, the AUC(0-inf) ([1]; human, plasma, mean) was 32.5 µg·h/mL and the Cmax ([1]; human, plasma, mean) was 4.09 µg/mL. For the same compound, the half-life ([1]; human, plasma, mean) was 1030 min, the CL/F ([1]; mean) was 7.9 L/h and the “levels of biomarkers of nephrotoxicity” value [2] was “caused an increase”. The “blood urea nitrogen (BUN) level” value ([2]; 8 hr and 24 hr serum samples) was “Elevated levels”, the creatinine level ([2]; 24 hr serum samples) was “Elevated levels” and the “gamma glutamyl transferase (GGT) level” value ([2]; 24 hr serum samples) was “Elevated levels”. The concentration at 8 h ([3]; cortex, endogenous level not subtracted, read-out: Cortex concentration) was 11900 ng/g, the Tmax ([3]; fasted, plasma) was 30 min and the AUC(0-inf) ([3]; fasted, plasma, endogenous level subtracted) was 500 µg·h/mL. The concentration at 8 h ([3]; hippocampus, endogenous level not subtracted, read-out: Hippocampus concentration) was 17700 ng/g, the concentration at 8 h ([3]; plasma, endogenous level subtracted, read-out: Plasma concentration) was 11.2 µg/mL and the “gross signs of nephrotoxicity” value ([4]; dose escalation 150 mg/kg to 750 mg/kg) was “only observed in rats receiving non-deuterated D-serine”. The “changes in BUN or creatinine” value ([4]; doses from 150 mg/kg to 750 mg/kg PO) was “increasingly elevated levels”, the AUC(0-inf) [5, 11] was 349 µg·h/mL and the Cmax [5, 11] was 180 µg/mL. For the same compound, the Tmax ([5]; 30 mg/kg, 30 mg/kg PO, fasted, mean) was 30 min, the Tmax ([5]; 75 mg/kg, 75 mg/kg PO, fasted, mean) was 30 min and the Tmax ([5]; 100 mg/kg, 100 mg/kg PO, fasted, mean) was 30 min. For the same compound, the Tmax ([5]; 150 mg/kg, 150 mg/kg PO, fasted, mean) was 18 min, the Tmax ([5]; 300 mg/kg, 300 mg/kg PO, fasted, mean) was 30 min and the Tmax ([5]; 300 mg/kg, all doses 30, 75, 100, 150, and 300 mg/kg PO) was 18 to 30 min. For the same compound, the creatinine level [6] was “Elevated levels”, the “gamma glutamyl transferase (GGT) level” value [6] was “Elevated levels” and the urea nitrogen level [6] was “Elevated levels”. For the same compound, the AUC(0-inf) [7] was 349 µg·h/mL, the Cmax ([7]; read-out: Cmax) was 180 µg/mL and the “Blood urea nitrogen level” value [8] was “elevated”. The creatinine level [8] was “elevated”, the glucose in urine [8] was “presence of glucose was observed” and the Tmax [9] was 25 min. For the same compound, the “activity at the NMDA receptor (peak current and steady state current)” value [10] was “indistinguishable”.
